≈ marks a conversion by molar mass, not a printed value.
Columns and labels:
[1] = cited from earlier work; for dissolution of complex vs. physical mixture: β-cyclodextrin complex vs. physical mixture
[2] = gels with methyl-β-cyclodextrin; cited from earlier work
[3] = In vitro release of dipyridamole from coated tablets (USP apparatus II); format: physicochemical; settings: for release of DP without SAE-CD: core DP, citric acid, fructose-lactose
physchem = assay: physchem
Method: (SBE)7 -β-CD (0-0.1 M) solutions were made in different buffer solutions at pH values ranging from 4.0 to 7.0 (citrate for 4 & 5; phosphate for 6 &7). […] The solutions were centrifuged for 10 min. at 2500 rpm. 20 μl of the supernatant was carefully sampled using a 100 μl gas-tight Hamilton Syringe (Hamilton, Nev.), diluted with mobile phase and analyzed by HPLC. The solubility data was then used to determine the binding constant using the method of Higuchi and Connors for AL-type phase behavior.

[4] = in words; cited from earlier work
pKa of dipyridamole = format: physicochemical; settings: basic drug
[5] = In vitro release of dipyridamole from coated tablets (USP apparatus II); format: physicochemical
Method: The sample volume was 20 μl and the UV detection wavelength was […] (Shimadzu 6A, Shimadzu, Japan). A mobile phase consisting of 70% methanol and 30% ammonium phosphate buffer (pH 5.0) was passed through the column at a flow rate of 1.5 ml/min. (SBE)7m -β-CD was detected by using a fluorimetric assay, 0.2 ml of a 1 mM solution of 2,6-toluidino-naphthalene-sulfonate to 0.8 ml of the sample. This solution was then excited at 325 nm and the emitted fluorescence detected at 455 nm using a Perkin 25 Elmer (Perkin-Elmer, CT) Fluorescence detector.
The ground physical mixture was then sieved through a 200 mesh (75 μm) screen. This process was repeated twice. This mixture was always stored in a desiccator when not used.
The dissolution die consists of a cylindrical stainless steel center-piece,a stainless steel platform, a stainless steel top cover, two Teflon sheets (top and bottom) and Teflon inserts. The cylindrical center-piece has a hole (radius=7.5 mm ) at the center in which the tablet is compressed. Both, the stainless steel top cover and top Teflon sheet have holes of same radius at the center. The center-piece was inverted and screwed onto the platform. […] The tablet core was compressed with a force of one ton for one minute using Carver press (Fred Carver Inc., NJ). The punch was carefully removed from the center-piece.
™ coatings were made by dissolving 5% (w/w) of […]™ R or S (Huls America, NJ), 5% of urea (SIGMA, MO) or polyethylene glycol (PEG 3350, SIGMA, MO) and 0.75% of triethyl Citrate (TEC, SIGMA, MO) in 89.25% ethanol. This was carried out until a clear solution was obtained. Cellulose acetate (CA-320S7 Eastman Chemical Co., TN) and hydroxypropyl methylcellulose phthalate (HPMCP, Eastman Chemical Co., TN) polymeric solutions were made by dissolving 5% of polymers and 1% of TEC in 94% of solvent containing equal amounts of methylene chloride and methanol. The ratio of CA to HPMCP was varied from 50:50 to 75:25 but the total amount of polymer was always maintained at 5%. The dissolution was carried out until clear solutions were obtained.
This coating solution was then air sprayed directly on the tablet surface under constant air flow (approx. 70° C.). The coated tablets were dried additionally for a period of 15 minutes under the same air flow. The tablets were additionally dried for a period of 12-16 hr. at room temperature. The thickness of the membrane was assumed to be the difference of thickness of the tablet after and before coating. The thickness measurements were carried out using a Screw-gauge micrometer.
The release studies for tablets coated with Eudragit L and CA: HPMCP were conducted by placing the dissolution die in a USP dissolution apparatus II (Vanderkamp 600, VanKel Industries Inc.) containing 450 ml of HCl (pH 1.5, 37° C. and 100 r.p.m.). […] 1.5 ml samples were collected periodically and equal amounts of dissolution medium was returned to the dissolution vessel. For the CA: HPMCP coated tablet, 100% release was determined by removing the membrane from the die and allowing the drug dissolution to be complete. The release experiments for tablets coated with Eudragit were conducted similarly in 450 ml of HCl for the first 2 hours, then placed in a phosphate buffer (pH 6.4) for additional 5 hr. and then placed in a phosphate buffer (pH 7.2). The release conditions and procedures were as described above.
0.5 ml of the sample was diluted by half in the mobile phase and the diluted samples were then analyzed using HPLC assay to determine drug concentrations as described in a later section.

[6] = osmotic pump tablet with (SBE)7M -β-CD; cited from earlier work
[7] = Release of prednisolone and SBE7 β-CD from uncoated controlled release tablet cores; format: physicochemical; settings: for effect of HPMC viscosity 15,000 to 100,000 cps on release: 5% PD
Method: The above ingredients are used to make a 300 mg tablet core having a controlled release profile. The ingredients were blended by hand and individual tablets were prepared on a carver press under a pressure of 1 ton for 7 seconds. The tablets were prepared using a 5/16" standard cup concave tooling. The determination of the release profile by dissolution was conducted according to USP method 2 at 37°, 100 rpm with paddles in a 900 ml water bath. The amounts of prednisolone (PD) released was determined by HPLC, and the amount of SBE7 -βCD released was determined by TNS as described herein.

Structure (SMILES): CC(=O)Nc1ccc(O)cc1 [acetaminophen]
- dissolution of complex vs. physical mixture [1]: significantly better, dissolution profile

Structure (SMILES): N=C(N)NCC1CCC(C(=O)Oc2ccccc2C(=O)OCc2ccccc2)CC1 (centres unmarked) [benexate]
- solubility of complex vs. physical mixture ([1]; cyclodextrin complex vs. physical mixture or neat): significantly increased solubility

Structure (SMILES): O=C1CN=C(c2ccccc2Cl)c2cc([N+](=O)[O-])ccc2N1 [clonazepam]
- flux rate of clonazepam [2]: improves the flux rate

Structure (SMILES): OCCN(CCO)c1nc(N2CCCCC2)c2nc(N(CCO)CCO)nc(N3CCCCC3)c2n1 [dipyridamole]
- release profile, SBE7 β-CD vs. DP ([3]; EUDRAGIT-L film 150 μm, pH raised from 1.5 to 6.8 after two hours, FIG. 9): substantially the same release profile
- release delay ([3]; EUDRAGIT-L film, pH 1.5 to 6.8, FIG. 9): two hour delay
- release of DP without SAE-CD ([3]; CA:HPMCP (50:50) 120 μm film): no release of DP was obtained
- release of DP without SAE-CD ([3]; EUDRAGIT-L and urea (50:50) 120 μm film): incomplete release of DP was observed
- solubility at 24 h (physchem; citrate buffer with sbe7 β-cd, pH 4): 16000 µg/mL (≈ 31700 µM)
- solubility at 24 h (physchem; citrate buffer, pH 4, aqueous buffer): 1990 µg/mL (≈ 3940 µM)
- solubility at 24 h (physchem; phosphate buffer with sbe7 β-cd, pH 7): 504 µg/mL (≈ 999 µM)
- solubility at 24 h (physchem; phosphate buffer, pH 7, aqueous buffer): 3.56 µg/mL (≈ 7.05 µM)
- solubility (physchem; water): 3.6 µg/mL (≈ 7.13 µM)
- bioavailability [4]: low and variable bioavailability
- pKa (pKa of dipyridamole): 6.28
- type of release ([5]; 90 μm film, CA:HPMCP 1:1, FIG. 14): delayed release
- type of release ([5]; 105 μm film, CA:HPMCP 6:4, FIG. 14): combined delayed and controlled release
- effect of film thickness on release profile ([5]; CA/HPMCP film 90 μm to 170 μm, FIG. 13): did not appear to substantially affect the release profile
- type of release ([5]; CA:HPMCP 1:1 film, FIG. 12): combined delayed and controlled release
- effect of film thickness on release profile ([5]; EUDRAGIT-L/urea film, physical mixture core, FIG. 10): independent of film thickness but dependent upon solution pH
- pH at which DP is released ([5]; EUDRAGIT-S and urea film, FIG. 11): ~7.2
- pH at which DP is released ([5]; comparison (EUDRAGIT-L and urea film)): about 6.8

Structure (SMILES): COc1ccc2c(c1)c(CC(=O)O)c(C)n2C(=O)c1ccc(Cl)cc1 [indomethacin]
- dissolution of complex vs. physical mixture [1]: significantly better, dissolution profile

Structure (SMILES): CCC1(c2ccccc2)C(=O)NC(=O)NC1=O [phenobarbitone]
- controlled dissolution, preformed complex vs. physical mixture ([1]; β-cyclodextrin): preformed complex performs substantially better than the physical mixture

Structure (SMILES): CN1C(C(=O)Nc2ccccn2)=C(O)c2ccccc2S1(=O)=O [piroxicam]
- dissolution of complex vs. physical mixture [1]: significantly better, dissolution profile

Structure (SMILES): C[C@]12C=CC(=O)C=C1CC[C@@H]1[C@@H]2[C@@H](O)C[C@@]2(C)[C@H]1CC[C@]2(O)C(=O)CO [prednisolone]
- release profile [6]: sustained release profile is provided by the osmotic pump tablet so long as the semipermeable membrane is present
- effect of HPMC viscosity 15,000 to 100,000 cps on release ([7]; 35% SAE-CD, 50% HPMC, 10% lactose, FIG. 20): substantially independent of the viscosity of the HPMC
- effect of HPMC viscosity 15,000 to 100,000 cps on release ([7]; 70% SAE-CD, 25% HPMC, FIG. 19): the rate of delivery of the PD and the overall amount of PD delivered increases
- effect of decreasing SAE-CD (increasing lactose) on delivery ([7]; PD 5%, HPMC approximately 25%, FIG. 17): the rate of delivery of the PD and the overall amount of PD delivered decrease
- effect of increasing release rate modifier ratio on release rate ([7]; PD 5%, SAE-CD 35%, HPMC 25% to 50%, FIG. 18): the release rate of the drug is decreased
- PD released ([7]; control HPMC K100M, no cyclodextrin, eleven hours, FIG. 19): approximately 50 % by weight
- PD released ([7]; control HPMC K100M, no cyclodextrin, six hours, FIG. 19): approximately 30 % by weight
- PD released ([7]; no cyclodextrin, HPMC, after eleven hours, FIG. 16): approximately 50 % by weight
- drug released ([7]; release rate modifier:drug approximately 5:1, 12 hours, FIG. 18): 75-90%
- drug released ([7]; release rate modifier:drug approximately 5:1, about six hours, FIG. 18): 65-75%
- drug released ([7]; release rate modifier:drug approximately 10:1, 12 hours, FIG. 18): 55-60%
- drug released ([7]; release rate modifier:drug approximately 10:1, about six hours, FIG. 18): 40-50%
- PD released ([7]; with SAE-CD, HPMC, approximately six hours, FIG. 16): greater than 90%
- PD released ([7]; with SAE-CD, HPMC, eleven hours, FIG. 16): substantially complete delivery of the drug

Structure (SMILES): CN1C(=O)C(O)N=C(c2ccccc2)c2cc(Cl)ccc21 (centres unmarked) [temazepam]
- dissolution of complex vs. physical mixture [1]: In only one of several examples did Martini et al. obtain a physical mixture formulation having a dissolution profile comparable to that of the preformed complex formulation

Structure (SMILES): Cc1cccc(N(C)C(=S)Oc2ccc3ccccc3c2)c1 [tolnaftate]
- dissolution of complex vs. physical mixture [1]: improved dissolution over the physical mixture or free drug

Structure (SMILES): CC(=O)CC(c1ccccc1)c1c(O)c2ccccc2oc1=O (centres unmarked) [warfarin]
- dissolution of complex vs. physical mixture [1]: significantly better, dissolution profile

Reference: US6046177A, “Sulfoalkyl ether cyclodextrin based controlled release solid pharmaceutical formulations” (Cydex, Inc., priority 1999, dated 2000)
